ChEMBL document CHEMBL1201862, “PubChem BioAssay data set” (2004)
The source made the active and inactive calls.

Experiments:
HEK293 [1] = assay: NOD1 signaling inhibitors, primary screen, cell-based, luminescence, uHTS (AID 1578); format: functional; conditions: Homo sapiens
BJ [2] = assay: cytotoxicity toward BJ-TERT fibroblasts, dose response, cell-based, RAS-independent, luminescence (AID 1933); format: functional; conditions: Homo sapiens
HEK293 [3] = assay: cells; format: functional, cell-based; conditions: Homo sapiens
BJ [4] = assay: cells; format: functional, cell-based; conditions: Homo sapiens
HEK293 [5] = assay: cells; format: functional, cell-based; conditions: Homo sapiens; remark: listed apart in the source
[6] = target: Nucleotide-binding oligomerization domain-containing protein 2 (Homo sapiens, UniProt Q9HC29); assay: NOD2 signaling inhibitors, cell-based, luminescence, uHTS, HEK293 (AID 1566); format: functional
HEK293 [7] = assay: NOD2 signaling inhibitors in MDP-stimulated cells, cell-based, uHTS, luminescence (AID 2001); format: functional; conditions: Homo sapiens
HEK293 [8] = assay: cells; format: functional, cell-based; conditions: Homo sapiens; remark: listed apart in the source
[9] = microbe, parasite or virus in culture; format: functional; conditions: Mycobacterium tuberculosis
[10] = growth suppression of PTEN-null colon cells, dose response, cell-based, HCT116 PTEN knockout (AID 1047); format: functional;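 also: HCT116 colon tumor cells with PTEN knocked out; cells exposed to compound for 60 hours before readout; potency for loss of cell viability measured by luminescence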
[11] = growth suppression of beta-catenin-knockout colon cells, dose response, cell-based, HCT116, human colon tumor (AID 1045); format: functional;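 also: HCT116 colon tumor cells with beta catenin knocked out; cells exposed to compound for 60 hours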
BJ [12] = assay: cytotoxicity toward BJ-TERT-LT-ST fibroblasts, dose response, cell-based, RAS-independent, luminescence (AID 1935); format: functional; conditions: Homo sapiens;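 also: BJ fibroblasts immortalized with TERT plus LT and ST oncogenes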
[13] = cytotoxicity toward DRD oncogenic fibroblasts, dose response, cell-based, non-viral oncogenic, luminescence (AID 1934); format: functional; conditions: Homo sapiens
[14] = Luminescence Cell-Based Dose Retest to Confirm Inhibitors of Cancer Stem Cells. [Related pubchem assays (depositor defined):AID2717, AID2721]; format: functional; conditions: Homo sapiens
[15] = target: 1-acylglycerol-3-phosphate O-acyltransferase ABHD5/Perilipin-5 (Homo sapiens, UniProt Q00G26+Q8WTS1); assay: Luminescence-based biochemical high throughput dose response assay for inhibitors of the interaction of the lipase co-activator protein, abhydrolase domain containing 5 (ABHD5) with perilipin-5 (MLDP; PLIN5) (2K validation set). [Related pubchem assays (depositor defined):AID493035, AID493241]
Sequence of 1-acylglycerol-3-phosphate O-acyltransferase ABHD5/Perilipin-5 (Q00G26 whole entry, the tested form may be a part): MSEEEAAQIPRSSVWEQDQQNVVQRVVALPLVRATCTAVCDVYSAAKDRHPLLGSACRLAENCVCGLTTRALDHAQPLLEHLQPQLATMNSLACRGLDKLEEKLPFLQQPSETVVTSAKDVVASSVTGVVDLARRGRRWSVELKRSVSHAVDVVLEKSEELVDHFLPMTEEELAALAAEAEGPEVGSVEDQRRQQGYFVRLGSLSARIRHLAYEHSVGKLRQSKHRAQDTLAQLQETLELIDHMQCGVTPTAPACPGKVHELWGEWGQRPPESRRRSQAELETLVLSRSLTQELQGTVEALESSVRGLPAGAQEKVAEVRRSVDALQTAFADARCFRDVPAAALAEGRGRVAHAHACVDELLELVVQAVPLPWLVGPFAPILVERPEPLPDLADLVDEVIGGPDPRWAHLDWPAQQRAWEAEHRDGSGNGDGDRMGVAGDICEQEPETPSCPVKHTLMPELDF
Sequence of 1-acylglycerol-3-phosphate O-acyltransferase ABHD5/Perilipin-5 (Q8WTS1 whole entry, the tested form may be a part): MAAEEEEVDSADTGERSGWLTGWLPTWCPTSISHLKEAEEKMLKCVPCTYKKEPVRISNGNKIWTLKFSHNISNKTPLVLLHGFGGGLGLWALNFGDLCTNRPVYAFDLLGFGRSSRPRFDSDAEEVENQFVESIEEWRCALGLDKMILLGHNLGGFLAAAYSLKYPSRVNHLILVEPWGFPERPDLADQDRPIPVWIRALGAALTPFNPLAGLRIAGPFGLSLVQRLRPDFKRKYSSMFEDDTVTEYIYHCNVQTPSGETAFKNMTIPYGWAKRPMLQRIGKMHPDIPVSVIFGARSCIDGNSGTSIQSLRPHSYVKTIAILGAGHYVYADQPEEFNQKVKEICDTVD

Perilipin-1/ABHD5 = Perilipin-1/ABHD5 (Homo sapiens, UniProt O60240+Q8WTS1); assay: Luminescence-based biochemical high throughput dose response assay for inhibitors of the interaction of the lipase co-activator protein, abhydrolase domain containing 5 (ABHD5) with perilipin-1 (PLIN1) (2K validation set). [Related pubchem assays (depositor defined):AID493027, AID493057]
Sequence of Perilipin-1/ABHD5 (Q8WTS1 whole entry, the tested form may be a part): as above
Sequence of Perilipin-1/ABHD5 (O60240 whole entry, the tested form may be a part): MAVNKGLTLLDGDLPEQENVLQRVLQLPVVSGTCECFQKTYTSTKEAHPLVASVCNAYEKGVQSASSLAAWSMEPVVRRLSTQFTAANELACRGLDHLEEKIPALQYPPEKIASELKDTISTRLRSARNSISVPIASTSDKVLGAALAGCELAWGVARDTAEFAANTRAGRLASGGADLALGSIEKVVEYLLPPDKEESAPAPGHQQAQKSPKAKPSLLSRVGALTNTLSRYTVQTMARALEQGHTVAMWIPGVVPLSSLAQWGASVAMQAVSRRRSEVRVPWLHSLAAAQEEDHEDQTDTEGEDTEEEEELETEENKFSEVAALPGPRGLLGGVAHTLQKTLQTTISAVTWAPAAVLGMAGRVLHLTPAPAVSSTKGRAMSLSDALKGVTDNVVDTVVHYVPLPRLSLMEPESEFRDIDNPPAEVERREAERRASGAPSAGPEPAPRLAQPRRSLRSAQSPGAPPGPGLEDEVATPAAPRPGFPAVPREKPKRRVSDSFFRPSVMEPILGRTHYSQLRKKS

[16] = target: T1, Replicative DNA helicase DnaB (Mycobacterium tuberculosis, UniProt P9WMR3); assay: DnaB intein splicing inhibitors, dose response, biochemical, cell-free fluorescence (AID 449749); format: functional
T1 sequence (P9WMR3 whole entry): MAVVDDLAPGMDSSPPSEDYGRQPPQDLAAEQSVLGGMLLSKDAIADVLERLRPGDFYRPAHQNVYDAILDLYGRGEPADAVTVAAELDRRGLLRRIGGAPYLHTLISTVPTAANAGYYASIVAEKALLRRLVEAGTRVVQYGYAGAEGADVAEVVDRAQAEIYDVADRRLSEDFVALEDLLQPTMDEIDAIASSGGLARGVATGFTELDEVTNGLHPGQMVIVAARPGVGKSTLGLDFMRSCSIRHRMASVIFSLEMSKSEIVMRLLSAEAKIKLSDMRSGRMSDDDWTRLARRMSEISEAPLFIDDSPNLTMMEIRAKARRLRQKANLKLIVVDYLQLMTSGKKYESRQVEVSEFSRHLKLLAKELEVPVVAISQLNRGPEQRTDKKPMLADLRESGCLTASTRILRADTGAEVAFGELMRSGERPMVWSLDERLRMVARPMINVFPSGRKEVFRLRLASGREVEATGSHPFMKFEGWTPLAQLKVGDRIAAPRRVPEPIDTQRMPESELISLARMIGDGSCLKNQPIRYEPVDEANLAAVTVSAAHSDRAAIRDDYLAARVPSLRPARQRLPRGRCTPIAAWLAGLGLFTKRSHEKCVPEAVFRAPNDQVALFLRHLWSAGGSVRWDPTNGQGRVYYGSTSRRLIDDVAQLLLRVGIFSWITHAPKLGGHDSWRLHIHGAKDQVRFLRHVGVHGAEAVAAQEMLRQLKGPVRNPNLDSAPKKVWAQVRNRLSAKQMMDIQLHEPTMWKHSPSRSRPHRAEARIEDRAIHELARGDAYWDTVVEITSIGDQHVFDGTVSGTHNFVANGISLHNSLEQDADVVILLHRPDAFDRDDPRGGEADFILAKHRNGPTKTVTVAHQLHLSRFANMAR

BJ [17] = assay: cytotoxicity toward Ras-transformed BJeLR fibroblasts, dose response, cell-based, alamar blue fluorescence, cherrypicked samples (AID 2631); format: functional; conditions: Homo sapiens;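 also: confirmatory dose-response assay in RAS-dependent BJ fibroblasts engineered with TERT, LT and ST, with cytotoxicity read by fluorescence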
Protein RecA = target: T2, Protein RecA (Mycobacterium tuberculosis, UniProt P9WHJ3); assay: Fluorescence Cell-Free Homogeneous Dose Retest to Identify Inhibitors of RecA-Intein Splicing Activity. [Related pubchem assays (depositor defined):AID2097, AID2223, AID489010, AID492950]; format: functional
T2 sequence (P9WHJ3 whole entry): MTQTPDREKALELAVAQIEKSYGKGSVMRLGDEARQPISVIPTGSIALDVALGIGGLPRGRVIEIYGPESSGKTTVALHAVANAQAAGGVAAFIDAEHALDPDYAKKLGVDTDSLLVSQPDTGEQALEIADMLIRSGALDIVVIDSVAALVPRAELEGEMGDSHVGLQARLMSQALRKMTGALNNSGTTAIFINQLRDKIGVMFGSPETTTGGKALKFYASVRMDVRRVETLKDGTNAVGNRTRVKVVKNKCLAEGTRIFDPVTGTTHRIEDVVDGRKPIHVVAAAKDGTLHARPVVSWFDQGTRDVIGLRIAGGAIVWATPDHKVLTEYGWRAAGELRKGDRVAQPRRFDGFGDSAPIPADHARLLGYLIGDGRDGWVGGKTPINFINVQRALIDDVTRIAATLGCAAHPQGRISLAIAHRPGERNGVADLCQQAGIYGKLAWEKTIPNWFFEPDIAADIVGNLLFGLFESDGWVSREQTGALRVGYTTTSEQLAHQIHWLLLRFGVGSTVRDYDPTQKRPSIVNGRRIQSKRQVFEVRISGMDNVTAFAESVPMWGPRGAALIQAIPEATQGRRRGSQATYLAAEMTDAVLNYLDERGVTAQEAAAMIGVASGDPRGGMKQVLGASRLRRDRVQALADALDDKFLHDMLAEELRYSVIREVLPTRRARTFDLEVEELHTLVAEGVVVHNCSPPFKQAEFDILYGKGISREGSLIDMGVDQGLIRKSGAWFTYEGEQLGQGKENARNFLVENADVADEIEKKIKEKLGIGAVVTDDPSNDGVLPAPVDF

[18] = target: Intestinal-type alkaline phosphatase (Mus musculus, UniProt P24822); assay: PubChem AID 488785; format: functional
[19] = target: T3, Alkaline phosphatase, tissue-nonspecific isozyme (Homo sapiens, UniProt P05186); assay: TNAP enzyme inhibition by screening hits, dose response, selectivity assay for mouse IAP inhibitor project, biochemical, human TNAP, uHTS hits (AID 488906); format: functional
T3 sequence (P05186 whole entry): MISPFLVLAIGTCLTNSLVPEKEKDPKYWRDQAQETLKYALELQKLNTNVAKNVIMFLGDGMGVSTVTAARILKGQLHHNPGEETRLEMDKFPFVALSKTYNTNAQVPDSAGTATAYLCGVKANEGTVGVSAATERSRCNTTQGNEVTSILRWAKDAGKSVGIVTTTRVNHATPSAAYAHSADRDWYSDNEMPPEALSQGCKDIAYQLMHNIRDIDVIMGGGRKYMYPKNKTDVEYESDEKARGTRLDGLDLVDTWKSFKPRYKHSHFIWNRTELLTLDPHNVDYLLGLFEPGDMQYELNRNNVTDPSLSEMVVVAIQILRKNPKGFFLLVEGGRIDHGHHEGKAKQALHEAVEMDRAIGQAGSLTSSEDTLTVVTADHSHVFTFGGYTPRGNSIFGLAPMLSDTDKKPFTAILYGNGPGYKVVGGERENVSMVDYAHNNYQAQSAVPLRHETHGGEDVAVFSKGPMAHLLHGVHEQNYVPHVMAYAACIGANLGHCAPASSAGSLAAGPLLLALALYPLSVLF

[20] = target: Intestinal-type alkaline phosphatase (Homo sapiens, UniProt P09923); assay: inhibition of human intestinal alkaline phosphatase – biochemical, dose response (AID 488876); format: functional
Sequence of Intestinal-type alkaline phosphatase (Homo sapiens, UniProt P09923) (P09923 whole entry): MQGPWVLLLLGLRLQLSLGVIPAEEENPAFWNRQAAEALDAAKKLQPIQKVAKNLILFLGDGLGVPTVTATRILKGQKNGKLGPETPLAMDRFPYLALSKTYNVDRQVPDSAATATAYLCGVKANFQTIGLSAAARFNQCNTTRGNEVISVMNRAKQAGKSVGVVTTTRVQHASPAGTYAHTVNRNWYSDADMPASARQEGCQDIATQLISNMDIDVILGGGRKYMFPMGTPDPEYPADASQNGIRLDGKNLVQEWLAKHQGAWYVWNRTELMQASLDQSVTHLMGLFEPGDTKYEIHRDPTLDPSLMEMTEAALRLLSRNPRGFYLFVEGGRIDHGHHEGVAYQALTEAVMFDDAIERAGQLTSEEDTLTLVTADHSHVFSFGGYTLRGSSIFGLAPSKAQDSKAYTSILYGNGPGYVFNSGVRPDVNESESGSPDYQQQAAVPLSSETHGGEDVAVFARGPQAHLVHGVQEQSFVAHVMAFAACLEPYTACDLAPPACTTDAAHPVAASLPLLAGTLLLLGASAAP

Exodeoxyribonuclease V = Exodeoxyribonuclease V (Escherichia coli (strain K12), UniProt P04993+P07648+P08394); assay: E. coli RecBCD inhibitors, dose response, counter-screen for AddAB inhibitor project, absorbance, V66 E. coli, mutant T4 phage (AID 492957); format: functional, cell-based, Escherichia coli str. K-12 substr. MG1655
Sequence of Exodeoxyribonuclease V (P04993 whole entry): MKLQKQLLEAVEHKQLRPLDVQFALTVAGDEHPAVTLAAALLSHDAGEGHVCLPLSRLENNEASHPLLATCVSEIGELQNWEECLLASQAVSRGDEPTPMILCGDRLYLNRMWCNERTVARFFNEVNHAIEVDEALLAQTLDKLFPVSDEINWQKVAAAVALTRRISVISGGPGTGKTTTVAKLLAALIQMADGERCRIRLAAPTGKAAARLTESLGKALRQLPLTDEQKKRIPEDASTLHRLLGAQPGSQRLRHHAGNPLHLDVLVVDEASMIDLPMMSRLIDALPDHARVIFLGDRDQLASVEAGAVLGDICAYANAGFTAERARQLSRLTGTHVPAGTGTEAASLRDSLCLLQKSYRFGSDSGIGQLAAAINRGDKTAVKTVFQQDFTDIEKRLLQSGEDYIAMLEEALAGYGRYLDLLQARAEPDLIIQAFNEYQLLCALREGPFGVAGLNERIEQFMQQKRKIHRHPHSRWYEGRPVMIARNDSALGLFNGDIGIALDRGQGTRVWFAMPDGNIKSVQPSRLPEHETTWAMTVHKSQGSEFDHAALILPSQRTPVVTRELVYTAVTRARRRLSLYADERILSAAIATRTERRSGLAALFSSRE
Sequence of Exodeoxyribonuclease V (P07648 whole entry): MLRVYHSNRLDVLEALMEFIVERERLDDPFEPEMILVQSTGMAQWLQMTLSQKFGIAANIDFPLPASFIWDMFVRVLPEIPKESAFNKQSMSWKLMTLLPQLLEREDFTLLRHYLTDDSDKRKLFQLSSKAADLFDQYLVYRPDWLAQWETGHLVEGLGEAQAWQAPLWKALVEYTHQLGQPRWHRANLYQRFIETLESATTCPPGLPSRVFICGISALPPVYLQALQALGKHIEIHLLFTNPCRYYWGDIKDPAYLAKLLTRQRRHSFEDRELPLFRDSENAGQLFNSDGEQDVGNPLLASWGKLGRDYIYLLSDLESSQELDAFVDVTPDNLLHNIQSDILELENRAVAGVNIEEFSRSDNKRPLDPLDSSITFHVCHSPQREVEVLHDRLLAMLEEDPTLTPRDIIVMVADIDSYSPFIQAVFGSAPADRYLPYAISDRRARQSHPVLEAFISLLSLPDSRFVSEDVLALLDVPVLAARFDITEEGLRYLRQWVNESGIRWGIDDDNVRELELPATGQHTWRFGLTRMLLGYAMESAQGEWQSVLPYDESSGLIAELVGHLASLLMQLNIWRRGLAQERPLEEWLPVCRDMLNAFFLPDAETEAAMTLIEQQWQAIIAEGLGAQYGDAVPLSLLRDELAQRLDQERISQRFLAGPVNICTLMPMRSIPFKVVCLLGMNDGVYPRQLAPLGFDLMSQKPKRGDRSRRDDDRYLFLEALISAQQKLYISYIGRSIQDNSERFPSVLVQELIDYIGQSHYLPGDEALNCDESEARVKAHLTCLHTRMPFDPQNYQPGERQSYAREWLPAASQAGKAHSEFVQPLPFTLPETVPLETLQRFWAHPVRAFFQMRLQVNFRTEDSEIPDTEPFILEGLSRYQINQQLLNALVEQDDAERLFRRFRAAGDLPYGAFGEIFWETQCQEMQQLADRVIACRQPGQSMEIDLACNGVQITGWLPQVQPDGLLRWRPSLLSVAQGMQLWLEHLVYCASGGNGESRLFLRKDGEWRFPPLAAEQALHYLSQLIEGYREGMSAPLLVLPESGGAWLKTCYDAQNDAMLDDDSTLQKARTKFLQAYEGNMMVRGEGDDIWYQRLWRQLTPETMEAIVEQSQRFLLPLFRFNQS
Sequence of Exodeoxyribonuclease V (P08394 whole entry): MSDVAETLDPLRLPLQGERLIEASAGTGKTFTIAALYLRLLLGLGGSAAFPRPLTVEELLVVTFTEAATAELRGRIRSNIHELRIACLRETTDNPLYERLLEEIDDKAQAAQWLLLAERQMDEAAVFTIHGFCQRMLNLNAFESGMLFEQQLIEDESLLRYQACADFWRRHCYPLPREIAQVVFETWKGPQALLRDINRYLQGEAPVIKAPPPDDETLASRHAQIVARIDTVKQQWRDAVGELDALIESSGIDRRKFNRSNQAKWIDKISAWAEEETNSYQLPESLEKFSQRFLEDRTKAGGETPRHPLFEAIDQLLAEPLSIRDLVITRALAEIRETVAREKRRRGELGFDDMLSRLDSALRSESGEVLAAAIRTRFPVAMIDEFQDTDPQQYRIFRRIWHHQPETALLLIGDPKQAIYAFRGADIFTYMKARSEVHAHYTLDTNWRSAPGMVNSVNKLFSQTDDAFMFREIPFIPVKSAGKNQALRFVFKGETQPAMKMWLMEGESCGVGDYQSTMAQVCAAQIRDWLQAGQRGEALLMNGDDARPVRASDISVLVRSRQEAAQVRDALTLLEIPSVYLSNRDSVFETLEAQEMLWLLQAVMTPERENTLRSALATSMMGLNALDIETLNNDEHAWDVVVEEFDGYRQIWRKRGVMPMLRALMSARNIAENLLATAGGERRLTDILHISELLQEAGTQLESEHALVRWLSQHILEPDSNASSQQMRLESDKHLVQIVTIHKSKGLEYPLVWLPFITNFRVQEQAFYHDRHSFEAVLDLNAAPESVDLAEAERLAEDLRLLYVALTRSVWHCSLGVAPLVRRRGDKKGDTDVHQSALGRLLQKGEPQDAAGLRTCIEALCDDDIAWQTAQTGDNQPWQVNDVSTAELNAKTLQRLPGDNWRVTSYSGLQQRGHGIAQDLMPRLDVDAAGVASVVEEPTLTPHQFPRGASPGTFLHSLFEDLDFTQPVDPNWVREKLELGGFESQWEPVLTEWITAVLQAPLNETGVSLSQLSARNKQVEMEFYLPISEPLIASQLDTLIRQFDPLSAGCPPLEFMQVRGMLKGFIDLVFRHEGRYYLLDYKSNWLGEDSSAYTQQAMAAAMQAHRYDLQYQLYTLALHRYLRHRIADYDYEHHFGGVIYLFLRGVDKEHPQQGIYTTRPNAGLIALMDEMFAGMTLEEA

[21] = Counterscreen for AddAB inhibitors: absorbance-based bacterial cell-based high throughput dose response assay for inhibitors of bacterial viability. [Related pubchem assays (depositor defined):AID435030, AID449728, AID449731, AID488942, AID488955, AID488956]; format: functional
[22] = target: Glyceraldehyde-3-phosphate dehydrogenase (Homo sapiens, UniProt P04406)
[23] = target: T3, Alkaline phosphatase, tissue-nonspecific isozyme; assay: human TNAP enzyme inhibitors, SAR follow-up, biochemical, luminescent, dose response (AID 1056)
[24] = NIH-3T3 fibroblast cytotoxicity, dose response, cytotoxicity control, cell-based, fluorescence, Alamar Blue, secondary assay (AID 2327); format: functional;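 also: NIH-3T3 mouse fibroblasts cultured with fluconazole at 8 µg/mL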
[25] = C. albicans growth with fluconazole, confirmation, fluorescence, retest (AID 2467); format: functional, cell-based
[26] = target: Heat shock protein HSP 90-alpha (Homo sapiens, UniProt P07900); format: functional, organism-based
H9c2 = assay: cells; format: functional, cell-based; conditions: Rattus norvegicus, H9c2, Myocardium;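 also: confirmatory concentration-response retest of ultra-high-throughput screening hits for modulation of myocardial damage; cell death induced by hydrogen peroxide oxidative stress; compound pretreatment for 60 min then peroxide exposure for 2 h; potency is for protecting the cells against peroxide damage rather than for killing them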

Structure (SMILES): COc1ccc(CN(CCC(c2ccccc2)c2ccc(OC(C)C)cc2)C(=O)CCl)cc1OC (stereo not drawn)
- EC50 (HEK293 [1]): 17.9 µM (active)
- EC50 (BJ [2]): 0.605 µM (active)
- IC50 (HEK293 [3]): 6.94 µM (active)
- EC50 (BJ [4]): 4.25 µM (active)
- IC50 (HEK293 [5]): 10.6 µM (active)
- EC50 [6]: > 20 µM (inactive)
- IC50 (HEK293 [7]): 13.9 µM (inactive)
- IC50 (HEK293 [8]): > 20 µM (inactive)
- CC50 [9]: 1.49 µM (active)
- EC50 [10]: 6.29 µM (active)
- EC50 [11]: 6.08 µM (active)
- EC50 (BJ [12]): 4.09 µM (inconclusive)
- EC50 [13]: 3.74 µM (active)
- AC50 [14]: 1.25 µM (active)
- IC50 [15]: 3.57 µM (active)
- IC50 (Perilipin-1/ABHD5): 3.17 µM (active)
- AC50 [16]: 0.335 µM (active)
- EC50 (BJ [17]): 3.43 µM (active)
- EC50 (Protein RecA): 0.333 µM (active)

Structure (SMILES): COc1ccc(Cl)cc1NC(=S)NCCC(c1ccccc1)c1ccccc1
- IC50 [18]: 11.3 µM (active)
- IC50 [19]: 23.9 µM (active)
- IC50 [20]: 15.9 µM (active)

Structure (SMILES): CC(=O)Nc1ccc2nc(NC(=O)c3ccc([N+](=O)[O-])o3)sc2c1
- IC50 (Exodeoxyribonuclease V): > 119 µM (inactive)
- IC50 [21]: > 119 µM (inactive)

Structure (SMILES): CC(C)CSc1nnc(N)[nH]1
- IC50 [22]: > 100 µM (not active)
- IC50 [23]: 60.8 µM (active)

Structure (SMILES): O=C1c2ccccc2NC(c2ccc(-c3ccc(Br)cc3)o2)N1O (stereo not drawn)
- EC50 [24]: > 150 µM (inconclusive)
- EC50 [25]: > 38 µM (not active)
- IC50 (Exodeoxyribonuclease V): > 119 µM (inactive)
- AC50 [14]: 4.35 µM (active)
- IC50 [21]: > 119 µM (inactive)
- AC50 [26]: 6.74 µM (active)
- IC50 (H9c2): > 79 µM (inactive)
